Test results reported in patent US20070123465A1, “Oligomeric peptides and their use for the treatment of hiv infections” (IPF PHARMACEUTICALS GMBH, priority 2004, published 2007).
Bridge positions count the residues as written; N and C are the ends. Square brackets hold non-standard residues; d marks the D form. Peptide text beside a SMILES is read from it. I, II: the chains in the order shown. dTic = O=C(O)[C@H]1Cc2ccccc2CN1; NMeL = CN[C@@H](CC(C)C)C(=O)O

tested on: HIV-1 NL4-3; format: cell-based; settings: X4-tropic HIV-1 NL4-3, P4-CCR5 cells
Text: P4-CCR5 indicator cells (Charneau et al., 1994; Journal of Molecular Biology 241, 651-662) expressing the primary CD4 receptor and both major HIV-1 entry cofactors CXCR4 and CCR5, were used to evaluate whether the oligomeric peptides according to the invention are potent inhibitors of HIV-1 infection. These cells contain the β-galactosidase reporter gene under the control of the HIV-1 promoter. Thus, activation of the β-galactosidase reporter gene allows to measure the efficiency of HIV-1 infection and thus to quantitate the potency of HIV-1 inhibitors (Detheux M. et al., 2000; Journal of Experimental Medicine 192, 1501-1508; Muinch et al., 2002; Antimicrobial Agents and Chemotherapy 46, 982-990).
To perform a typical infection assay, P4-CCR5 cells (Charneau et al., 1994; Journal of Molecular Biology 241, 651-662; Charneau et al., Virology. 1994 205, 247-53) were kept in RPMI 1640 medium supplemented with 10 volume % FCS. This cell line coexpresses CD4 and both HIV-1 coreceptors CCR5 and CXCR4 and contains the β-galactosidase gene under the control of the HIV-1 promoter. Virus stocks were generated by the calcium coprecipitation method as described (Detheux et al., 3 Exp Med. 192:1501-8; 2000), and the p24 antigen levels were quantitated with an HIV p24 ELISA kit obtained through the NIH AIDS Reagent Program. Cells were seeded in flat-bottomed 96-well dishes, cultured overnight, and incubated with the different doses of peptide for 2 h before infection with virus containing 1 ng of p24 antigen in a total volume of […] of medium. After overnight incubation, cells were washed twice and cultivated in fresh culture medium without inhibitory peptide. Three days after infection the cells were lysed, and infectivity was quantitated using the Galacto-Light Plus™ chemiluminescence reporter assay kit (Tropix, Bedford, Mass.) as recommended by the manufacturer. All infections were performed in quintuplicate.
Below, the IC50 values of peptides of the invention obtained from the described infection assay are provided.

| Compound | IC50 [nM] |
| --- | --- |
| CC[C@H](C)[C@H](NC(=O)[C@H](C)NC(=O)[C@H](CCC(=O)O)NC(=O)[C@@H](N)CC(C)C)C(=O)N1CCC[C@H]1C(=O)N[C@@H](CCSC)C(=O)N[C@@H](CSSC[C@H](NC(=O)[C@H](CCSC)NC(=O)[C@@H]1CCCN1C(=O)[C@@H](NC(=O)[C@H](C)NC(=O)[C@H](CCC(=O)O)NC(=O)[C@@H](N)CC(C)C)[C@@H](C)CC)C(=O)N[C@H](C(=O)N1CCC[C@H]1C(=O)N1CCC[C@H]1C(=O)N[C@@H](CCC(=O)O)C(=O)N[C@@H](Cc1ccccc1)C(=O)N[C@@H](CC(C)C)C(=O)N[C@@H](Cc1ccccc1)C(=O)NCC(=O)N[C@@H](CCCCN)C(=O)N1CCC[C@H]1C(=O)N[C@@H](Cc1ccccc1)C(=O)N[C@H](C(=O)N[C@@H](Cc1ccccc1)C(=O)O)C(C)C)[C@@H](C)CC)C(=O)N[C@H](C(=O)N1CCC[C@H]1C(=O)N1CCC[C@H]1C(=O)N[C@@H](CCC(=O)O)C(=O)N[C@@H](Cc1ccccc1)C(=O)N[C@@H](CC(C)C)C(=O)N[C@@H](Cc1ccccc1)C(=O)NCC(=O)N[C@@H](CCCCN)C(=O)N1CCC[C@H]1C(=O)N[C@@H](Cc1ccccc1)C(=O)N[C@H](C(=O)N[C@@H](Cc1ccccc1)C(=O)O)C(C)C)[C@@H](C)CC [VIR-577] (I: H-LEAIPMCIPPEFLFGKPFVF-OH / II: H-LEAIPMCIPPEFLFGKPFVF-OH; disulfide I:7-II:7) | 3270 |
| CC[C@H](C)[C@H](NC(=O)[C@H](CCCCN)NC(=O)[C@H](CCC(=O)O)NC(=O)[C@@H](N)CC(C)C)C(=O)N1CCC[C@H]1C(=O)N[C@@H](CSSC[C@H](NC(=O)[C@@H]1CCCN1C(=O)[C@@H](NC(=O)[C@H](CCCCN)NC(=O)[C@H](CCC(=O)O)NC(=O)[C@@H](N)CC(C)C)[C@@H](C)CC)C(=O)N[C@@H](CO)C(=O)N[C@H](C(=O)N1CCC[C@H]1C(=O)N1CCC[C@@H]1C(=O)N[C@@H](CCC(=O)O)C(=O)N[C@H](C(=O)N[C@@H](C)C(=O)N[C@@H](Cc1ccccc1)C(=O)N[C@@H](CC(N)=O)C(=O)N[C@@H](CCCCN)C(=O)N1CCC[C@H]1C(=O)N[C@@H](Cc1ccccc1)C(=O)N[C@H](C(=O)N[C@@H](Cc1ccccc1)C(=O)O)C(C)C)C(C)C)[C@@H](C)CC)C(=O)N[C@@H](CO)C(=O)N[C@H](C(=O)N1CCC[C@H]1C(=O)N1CCC[C@@H]1C(=O)N[C@@H](CCC(=O)O)C(=O)N[C@H](C(=O)N[C@@H](C)C(=O)N[C@@H](Cc1ccccc1)C(=O)N[C@@H](CC(N)=O)C(=O)N[C@@H](CCCCN)C(=O)N1CCC[C@H]1C(=O)N[C@@H](Cc1ccccc1)C(=O)N[C@H](C(=O)N[C@@H](Cc1ccccc1)C(=O)O)C(C)C)C(C)C)[C@@H](C)CC [VIR-705, (LEKIPCSIPpEVAFNKPFVF)2] (I: H-LEKIPCSIP[dP]EVAFNKPFVF-OH / II: H-LEKIPCSIP[dP]EVAFNKPFVF-OH; disulfide I:6-II:6) | 484 |
| CC[C@H](C)[C@H](NC(=O)[C@H](C)NC(=O)[C@H](CCC(=O)O)NC(=O)[C@@H](N)CC(C)C)C(=O)N1CCC[C@H]1C(=O)N[C@@H](CSSC[C@H](NC(=O)[C@@H]1CCCN1C(=O)[C@@H](NC(=O)[C@H](C)NC(=O)[C@H](CCC(=O)O)NC(=O)[C@@H](N)CC(C)C)[C@@H](C)CC)C(=O)NCC(=O)N[C@H](C(=O)N1CCC[C@H]1C(=O)N1CCC[C@@H]1C(=O)N[C@@H](CCC(=O)O)C(=O)N[C@H](C(=O)N1Cc2ccccc2C[C@@H]1C(=O)N[C@@H](Cc1ccccc1)C(=O)N[C@@H](CC(N)=O)C(=O)N[C@@H](CCCCN)C(=O)N1CCC[C@H]1C(=O)N[C@@H](Cc1ccccc1)C(=O)N[C@H](C(=O)N[C@@H](Cc1ccccc1)C(=O)O)C(C)C)C(C)C)[C@@H](C)CC)C(=O)NCC(=O)N[C@H](C(=O)N1CCC[C@H]1C(=O)N1CCC[C@@H]1C(=O)N[C@@H](CCC(=O)O)C(=O)N[C@H](C(=O)N1Cc2ccccc2C[C@@H]1C(=O)N[C@@H](Cc1ccccc1)C(=O)N[C@@H](CC(N)=O)C(=O)N[C@@H](CCCCN)C(=O)N1CCC[C@H]1C(=O)N[C@@H](Cc1ccccc1)C(=O)N[C@H](C(=O)N[C@@H](Cc1ccccc1)C(=O)O)C(C)C)C(C)C)[C@@H](C)CC [VIR-706, (LEAIPCGIPpEV(D-Tic)FNKPFVF)2] (I: H-LEAIPCGIP[dP]EV[dTic]FNKPFVF-OH / II: H-LEAIPCGIP[dP]EV[dTic]FNKPFVF-OH; disulfide I:6-II:6; N-terminus and C-terminus assumed) | 74 |
| CC[C@H](C)[C@H](NC(=O)[C@H](C)NC(=O)[C@H](CCC(=O)O)NC(=O)[C@H](CC(C)C)NC)C(=O)N1CCC[C@H]1C(=O)N[C@@H](CSSC[C@H](NC(=O)[C@@H]1CCCN1C(=O)[C@@H](NC(=O)[C@H](C)NC(=O)[C@H](CCC(=O)O)NC(=O)[C@H](CC(C)C)NC)[C@@H](C)CC)C(=O)N[C@@H](CO)C(=O)N[C@H](C(=O)N1CCC[C@H]1C(=O)N1CCC[C@H]1C(=O)N[C@@H](CCC(=O)O)C(=O)N[C@@H](Cc1ccccc1)C(=O)N[C@@H](CC(C)C)C(=O)N[C@@H](Cc1ccccc1)C(=O)NCC(=O)N[C@@H](CCCCN)C(=O)N1CCC[C@H]1C(=O)N[C@@H](Cc1ccccc1)C(=O)N[C@H](C(=O)N[C@@H](Cc1ccccc1)C(=O)O)C(C)C)[C@@H](C)CC)C(=O)N[C@@H](CO)C(=O)N[C@H](C(=O)N1CCC[C@H]1C(=O)N1CCC[C@H]1C(=O)N[C@@H](CCC(=O)O)C(=O)N[C@@H](Cc1ccccc1)C(=O)N[C@@H](CC(C)C)C(=O)N[C@@H](Cc1ccccc1)C(=O)NCC(=O)N[C@@H](CCCCN)C(=O)N1CCC[C@H]1C(=O)N[C@@H](Cc1ccccc1)C(=O)N[C@H](C(=O)N[C@@H](Cc1ccccc1)C(=O)O)C(C)C)[C@@H](C)CC [VIR-712] (I: H-[NMeL]EAIPCSIPPEFLFGKPFVF-OH / II: H-[NMeL]EAIPCSIPPEFLFGKPFVF-OH; disulfide I:6-II:6; C-terminus assumed) | 195 |
| I: H-LEAIPMSIPPEFLFGKPFVFKG-OH / II: H-LEAIPMSIPPEFLFGKPFVF (amide I:21-II:C) [VIR-574] | 3080 |
